Patent publication US12103919B2, “3-(5-oxy)-1-oxoisoindolin-2-yl)piperidine-2,6-dione derivatives and uses thereof” (NOVARTIS AG, priority 2021, dated 2024)

What was measured:
HbF [1] = settings: cited from earlier work
HbF [2] = settings: human primary erythroid cells; cited from earlier work
HBG1/2 = assay: Analysis of HbF gene expression by RNA-seq after CRISPR/Cas9 knockout of WIZ in mPB CD34+ cells; type: cell-based, human; settings: WIZ KO vs scrambled gRNA control, 7 days erythroid differentiation, FIG. 1A
Description: Mobilized peripheral blood (mPB) CD34+ cells (AllCells, LLC) were maintained in StemSpan™ serum-free expansion media (SFEM) ([…] Technologies Inc.) supplemented with 50 ng/mL each of rhTPO, rhlL-6, rhFLT3L, rhSCF for 2-3 days prior to shRNA transduction or targeted ribonucleoprotein (RNP) electroporation targeting WIZ. All cytokines were obtained from Peprotech®, Inc. Cell cultures were maintained at 37° C. and 5% CO2 in a humidified tissue culture incubator.
Alt-R CRISPR-Cas9 crRNA and tracrRNA (5′-[…]-3′; SEQ ID NO: 7) were purchased from Integrated DNA Technologies, Inc. Equimolar tracrRNA was annealed with WIZ targeting crRNA (Table 3) in Tris buffer (10 mM, pH 7.5) by heating at 95° C. for 5 minutes using a polymerase chain reaction (PCR) machine (Bio-Rad) followed by cooling to room temperature on the benchtop. Subsequently, a ribonucleoprotein (RNP) complex was generated by mixing annealed tracrRNA:crRNA with 6 ug of Cas9 at 37° C. for 5 minutes in 1× buffer containing HEPES (100 mM), KCl (50 mM), MgCl2 (2.5 mM), glycerol (0.03%), DTT (1 mM) and Tris pH 7.5 (2 mM). […]
Two independent, targeted CRISPR/Cas9 knockout (KO) of WIZ were done using WIZ_6 and WIZ_18 gRNAs or a non-targeting scrambled gRNA negative control in mPB CD34+ HSCs. […] The quality of isolated RNA was determined before sequencing using Agilent RNA 6000 Pico Kit (Agilent, catalogue #5067-1513). […]

| Molecule | HbF induction in vivo (HbF [1]) | HbF induction ex vivo (HbF [2]) | HBG1/2 expression upon erythroid differentiation (HBG1/2) |
| --- | --- | --- | --- |
| Nc1cccc2c1CN(C1CCC(=O)NC1=O)C2=O (stereo not drawn) [lenalidomide] | induce HbF | induce HbF ex vivo | – |
| Nc1cccc2c1C(=O)N(C1CCC(=O)NC1=O)C2=O (stereo not drawn) [pomalidomide] | induce HbF | induce HbF ex vivo | – |
| WIZ_6: WIZ targeting crRNA/gRNA, AACATCTTTCGGGCCGTAGG, SEQ ID NO 9 (listed as DNA, chemistry not given here) | – | – | upregulation of fetal hemoglobin genes (HBG1/2) |
| WIZ_18: WIZ targeting crRNA/gRNA, AGTGGGTGCGGCACTTACAG, SEQ ID NO 14 (listed as DNA, chemistry not given here) | – | – | upregulation of fetal hemoglobin genes (HBG1/2) |
